Legend:
[1] = tested on: Age-Impaired (AI) Long-Evans rats; test: Morris Water Maze (MWM) retention trial, spatial memory retention; format: in vivo, rat
Procedure: FIG. 2 depicts the effects of administering levetiracetam on the spatial memory retention of six aged-impaired rats (AI) in a Morris Water Maze (MWM) test. Three treatment conditions were employed: vehicle control, levetiracetam (5 mg/kg/day) and levetiracetam (10 mg/kg/day). The AI rats were trained for two consecutive days, with a one-time treatment prior to the training trials per day. 24 hours later, the AI rats were tested. The time the AI rats, 24 hours after treatment with the different conditions and two days of training, spent swimming in the target quadrant or the target annulus in a memory retention trial is used as a measure of spatial memory retention. The target quadrant refers to the quadrant of the maze (which is a circular pool) where the escape platform is placed during the training trials. The target annulus refers to the exact location of the escape platform during the training trials.
The MWM apparatus consists of a large, circular pool (diameter 1.83 m; height, 0.58 m) filled with water (27° C.) that is made opaque through the addition of non-toxic pigment or some other substance. In the typical "hidden platform" version of the test, rats are trained to find a camouflaged white escape platform (height, 34.5 cm) that is positioned in the center of one quadrant of the maze about 1.0 cm below the water surface. This platform can be retracted to the bottom of the tank or raised to its normal position from outside the maze during behavioral testing. The location of the platform remains constant from trial to trial. Because there are no local cues that mark the position of the platform, the rat's ability to locate it efficiently from any starting position at the perimeter of the pool depends on using information surrounding the maze. The maze is surrounded by black curtains to which white patterns are affixed to provide a configuration of spatial cues. A second platform (height 37.5 cm), with its surface painted black is elevated 2 cm above the water surface during cue training to control for factors unrelated to cognition. The behavior of a rat in the pool is recorded by a camera that is suspended 2.5 m above the center of the pool. The camera is connected to a video tracking system (HVS Image Advanced Tracker VP200) and a PC computer running HVS software developed by Richard Baker of HVS Image, Hampton, UK.
The MWM protocol is optimized for sensitivity to the effects of aging on cognition and for measures of reliable individual differences within the aged population of out-bred Long-Evans rats (Gallagher et al. Behav. Neurosci. 107:618-626, (1993)). […] At the completion of the protocol using the hidden platform, rats are assessed for cue learning using the visible platform. […]

DG/CA3 of aMCI subjects = test: fMRI activity during lure stimuli correctly identified as similar, DG/CA3; format: in vivo, human; conditions: 125 mg twice a day for two weeks
Procedure: FIG. 8B depicts the average activity in the left CA3 of aMCI subjects with placebo treatment or levetiracetam treatment (125 mg twice a day for two weeks) during the presentation of lure stimuli that the subject correctly identified as "similar."
A within-subjects trial of 8 weeks duration, involving 17 amnestic MCI (aMCI) subjects and 17 age-matched controls with a low dose treatment of levetiracetam is conducted. During the course of the study, each aMCI subject receives both drug and placebo treatments separately in two periods of two weeks each, with the order of treatments among different aMCI subjects counterbalanced (see FIG. 7). Age-matched control subjects treated with placebo serve as a further control. Cognitive testing and fMRI imaging data are obtained from the subjects after each two week period of drug/placebo treatment.
Imaging data are obtained through high-resolution methods developed in the Stark laboratory. Data are collected on a Phillips 3 Tesla scanner (Eindhoven, The Netherlands) equipped with an 8-channel SENSE (Sensitivity Encoding) head coil, located at the F.M. Kirby Research Center for Functional Brain Imaging at the Kennedy Krieger Institute (Baltimore, MD). […]
Group data are analyzed using a two-way Analysis of Variance (ANOVA) with trial types and group as fixed factors, and subject as a random factor nested within group. […]

CC[C@@H](C(N)=O)N1CCCC1=O [levetiracetam, (2S)-2-(2-oxopyrrolidin-1-yl) butanamide]
performance (time in target quadrant) compared to vehicle ([1]; 5 mg/kg/day i.p., retention trial 24 h after training): did not significantly improve | time spent in the target annulus ([1]; 10 mg/kg/day i.p., retention trial): effectivness of the 10 mg/kg/day levetiracetam treatment was also seen | memory as compared to vehicle-treated controls (time in target quadrant) ([1]; 10 mg/kg/day i.p., retention trial 24 h after training): significantly improved memory | time spent in the target quadrant, percentage of total swimming time ([1]; 10 mg/kg/day i.p., retention trial 24 h after two training days): approximately 35% | DG/CA3 activity compared with control subjects treated with placebo (DG/CA3 of aMCI subjects): statistically indistinguishable | DG/CA3 activity during successful memory judgments, vs placebo treatment (DG/CA3 of aMCI subjects; p = 0.037): reduces DG/CA3 hyper-activity

Source: US20230033195A1, “METHODS AND COMPOSITIONS FOR IMPROVING COGNITIVE FUNCTION” (THE JOHNS HOPKINS UNIVERSITY, priority 2011, published 2023)
